For the assay, the target named is PCSK9 (proprotein convertase subtilisin/kexin type-9) (Homo sapiens, UniProt Q8NBP7). As to the kind of experiment: SPR with immobilized PCSK9. It counts as binding.

Regarding `CC/C=C\[C@H](O)[C@H](O)C1=C(C)C(=O)[C@]2(O1)C(=O)N[C@@](OC)(C(=O)c1ccccc1)[C@@H]2O` [PS, Pseurotin A], the affinity, expressed as Kd, was 23.4 µM.
